Data published in patent publication US9365574B2, “Soluble guanylate cyclase activators” (Merck Sharp & Dohme Corp., priority 2010, dated 2016).

Tested on: Spontaneously hypertensive rats (SHR)
Experiment: Acute Efficacy in Spontaneously Hypertensive Rats (SHR), telemetry blood pressure
Type: in vivo, rat
Excerpt: Acute Efficacy in Spontaneously Hypertensive Rats (SHR)
Spontaneously hypertensive rats (SHR, male, Charles River) were implanted with DSI TA11PA-C40 telemetry device (Data Sciences, Inc., St. Paul, Minn.) under isoflurane or ketamine/metomidine anesthesia. The telemetry unit catheter was inserted into the descending aorta via the femoral artery and the telemetry device was implanted subcutaneously in the left flank area. Animals were allowed to recover from surgery for 14 days before the start of any studies. Blood pressure, heart rate, and activity signals from conscious, freely moving rats were recorded continuously for 30 seconds every 10 minutes. On the day prior to administration of compound, a single oral dose of vehicle (10% transcutol/20% Cremophor/70% water) was administered to all animals to establish baseline control data. The blood pressure lowering efficacy of compound (PO) or vehicle was evaluated following a single oral gavage. Data were collected as hourly averages, and changes in blood pressure were calculated by subtracting control baseline data on an hourly basis. Animals were maintained on normal diet with a 12 hour light-dark cycle.
Maximum peak decreases of systolic blood pressure (SBP) in SHR at a particular P.O. dose (mpk milligrams per kilogram) for the following representative compounds are provided.

## CC1(C(=O)Nc2ccccc2)C(=O)Nc2nc(-c3nn(CCC(F)(F)C(F)(F)F)c4cc(Cl)ccc34)nc(N)c21 (stereo not drawn) [Example 165, 4-Amino-2-[6-Chloro-1-(3,3,4,4,4-Pentafluorobutyl)-1H-Indazol-3-yl]-5-Methyl-6-Oxo-N-Phenyl-6,7-Dihydro-5H-Pyrrolo[2,3-D]Pyrimidine-5-Carboxamide]
Single oral dose 0.3 mpk P.O.
  Maximum peak decrease of systolic blood pressure (SBP) in SHR, Category: B (Category B=SBP in SHRs 25-40 mmHg)

## CCOC(=O)NC1(C)C(=O)Nc2nc(-c3nn(CCC(F)(F)C(F)(F)F)c4cc(Cl)ccc34)nc(N)c21 (stereo not drawn) [Example 166, Ethyl (4-Amino-2-(6-Chloro-1-(3,3,4,4,4-Pentafluorobutyl)-1H-Indazol-3-yl)-5-Methyl-6-Oxo-6,7-Dihydro-5H-Pyrrolo[2,3-D]Pyrimidin-5-yl)Carbamate]
Single oral dose 0.3 mpk P.O.
  Maximum peak decrease of systolic blood pressure (SBP) in SHR, Category: A (Category A=SBP in SHRs<25 mmHg)

## Cc1nc(C2(C)C(=O)Nc3nc(-c4nn(CCC(F)(F)C(F)(F)F)c5cc(Cl)ccc45)nc(N)c32)sc1C (stereo not drawn) [Example 167, 4-Amino-2-[6-Chloro-1-(3,3,4,4,4-Pentafluorobutyl)-1H-Indazol-3-yl]-5-(4,5-Dimethyl-1,3-Thiazol-2-yl)-5-Methyl-5,7-Dihydro-6H-Pyrrolo[2,3-D]Pyrimidin-6-One]
Single oral dose 0.3 mpk P.O.
  Maximum peak decrease of systolic blood pressure (SBP) in SHR, Category: B (Category B=SBP in SHRs 25-40 mmHg)

## CC1(c2nncs2)C(=O)Nc2nc(-c3nn(CCC(F)(F)C(F)(F)F)c4ncccc34)nc(N)c21 (stereo not drawn) [Example 168, 4-Amino-5-Methyl-2-[1-(3,3,4,4,4-Pentafluorobutyl)-1H-Pyrazolo[3,4-B]Pyridin-3-yl]-5-(1,3,4-Thiadiazol-2-yl)-5,7-Dihydro-6H-Pyrrolo[2,3-D]Pyrimidin-6-One]
Dose 0.3 mpk
  Maximum SBP reduction: 19 ± 9 mmHg
Single oral dose 0.3 mpk P.O.
  Maximum peak decrease of systolic blood pressure (SBP) in SHR, Category: A (Category A=SBP in SHRs<25 mmHg)

## Cc1nnc(C2(C)C(=O)Nc3nc(-c4nn(CCC(F)(F)C(F)(F)F)c5ncccc45)nc(N)c32)o1 (stereo not drawn) [Example 169, 4-Amino-5-Methyl-5-(5-Methyl-1,3,4-Oxadiazol-2-yl)-2-[1-(3,3,4,4,4-Pentafluorobutyl)-1H-Pyrazolo[3,4-B]Pyridin-3-yl]-5,7-Dihydro-6H-Pyrrolo[2,3-D]Pyrimidin-6-One]
Dose 0.3 mpk
  Maximum SBP reduction: 52 ± 5 mmHg
Single oral dose 0.3 mpk P.O.
  Maximum peak decrease of systolic blood pressure (SBP) in SHR, Category: C (Category C=SBP in SHRs>40 mmHg)

## CC(C)n1nc(C2(C)C(=O)Nc3nc(-c4nn(CCC(F)(F)C(F)(F)F)c5cc(Cl)ccc45)nc(N)c32)oc1=O (stereo not drawn) [Example 171, 4-Amino-2-[6-Chloro-1-(3,3,4,4,4-Pentafluorobutyl)-1H-Indazol-3-yl]-5-Methyl-5-[5-Oxo-4-(Propan-2-yl)-4,5-Dihydro-1,3,4-Oxadiazol-2-yl]-5,7-Dihydro-6H-Pyrrolo[2,3-D]Pyrimidin-6-One]
Single oral dose 0.3 mpk P.O.
  Maximum peak decrease of systolic blood pressure (SBP) in SHR, Category: C (Category C=SBP in SHRs>40 mmHg)

## CC(C)n1nc(C2(C)C(=O)Nc3nc(-c4nn(CCC(F)(F)C(F)(F)F)c5cc(Cl)ccc45)nc(N)c32)oc1=S (stereo not drawn) [Example 172, 4-Amino-2-[6-Chloro-1-(3,3,4,4,4-Pentafluorobutyl)-1H-Indazol-3-yl]-5-Methyl-5-[4-(Propan-2-yl)-5-Thioxo-4,5-Dihydro-1,3,4-Oxadiazol-2-yl]-5,7-Dihydro-6H-Pyrrolo[2,3-D]Pyrimidin-6-One]
Single oral dose 0.3 mpk P.O.
  Maximum peak decrease of systolic blood pressure (SBP) in SHR, Category: A (Category A=SBP in SHRs<25 mmHg)

## CCn1cc(C2(C)C(=O)Nc3nc(-c4nn(CCC(F)(F)C(F)(F)F)c5ncccc45)nc(N)c32)nn1 (stereo not drawn) [Example 173, 4-Amino-5-(1-Ethyl-1H-1,2,3-Triazol-4-yl)-5-Methyl-2-[1-(3,3,4,4,4-Pentafluorobutyl)-1H-Pyrazolo[3,4-B]Pyridin-3-yl]-5,7-Dihydro-6H-Pyrrolo[2,3-D]Pyrimidin-6-One]
Dose 0.3 mpk
  Maximum SBP reduction: 66 ± 6 mmHg
Single oral dose 0.3 mpk P.O.
  Maximum peak decrease of systolic blood pressure (SBP) in SHR, Category: C (Category C=SBP in SHRs>40 mmHg)

## CC1(NCC2CC2)C(=O)Nc2nc(-c3nn(CCC(F)(F)C(F)(F)F)c4ncccc34)nc(N)c21 (stereo not drawn) [Example 174, 4-Amino-5-[(Cyclopropylmethyl)Amino]-5-Methyl-2-[1-(3,3,4,4,4-Pentafluorobutyl)-1H-Pyrazolo[3,4-B]Pyridin-3-yl]-5,7-Dihydro-6H-Pyrrolo[2,3-D]Pyrimidin-6-One]
Single oral dose 0.3 mpk P.O.
  Maximum peak decrease of systolic blood pressure (SBP) in SHR, Category: B (Category B=SBP in SHRs 25-40 mmHg)

## CC1(CC#N)C(=O)Nc2nc(-c3nn(CCC(F)(F)C(F)(F)F)c4cc(Cl)ccc34)nc(N)c21 (stereo not drawn) [Example 175, {4-Amino-2-[6-Chloro-1-(3,3,4,4,4-Pentafluorobutyl)-1H-Indazol-3-yl]-5-Methyl-6-Oxo-6,7-Dihydro-5H-Pyrrolo[2,3-D]Pyrimidin-5-yl}Acetonitrile]
Single oral dose 0.3 mpk P.O.
  Maximum peak decrease of systolic blood pressure (SBP) in SHR, Category: B (Category B=SBP in SHRs 25-40 mmHg)

## CC1(C(=O)NC2CC2)C(=O)Nc2nc(-c3nn(CCC(F)(F)C(F)(F)F)c4nc(Cl)ccc34)nc(N)c21 (stereo not drawn) [Example 176, 4-Amino-2-(6-Chloro-1-(3,3,4,4,4-Pentafluorobutyl)-1H-Pyrazolo[3,4-B]Pyridin-3-yl)-N-Cyclopropyl-5-Methyl-6-Oxo-6,7-Dihydro-5H-Pyrrolo[2,3-D]Pyrimidine-5-Carboxamide]
Single oral dose 0.1 mpk P.O.
  Maximum peak decrease of systolic blood pressure (SBP) in SHR, Category: C (Category C=SBP in SHRs>40 mmHg)

## COc1ccc2c(-c3nc(N)c4c(n3)NC(=O)C4(C)C(=O)NC3CC3)nn(CCC(F)(F)C(F)(F)F)c2n1 (stereo not drawn) [Example 178, 4-Amino-N-Cyclopropyl-2-(6-Methoxy-1-(3,3,4,4,4-Pentafluorobutyl)-1H-Pyrazolo[3,4-B]Pyridin-3-yl)-5-Methyl-6-Oxo-6,7-Dihydro-5H-Pyrrolo[2,3-D]Pyrimidine-5-Carboxamide]
Single oral dose 0.1 mpk P.O.
  Maximum peak decrease of systolic blood pressure (SBP) in SHR, Category: A (Category A=SBP in SHRs<25 mmHg)

## Cc1ccc2c(-c3nc(N)c4c(n3)NC(=O)C4(C)C(=O)NC3CC3)nn(CCC(F)(F)C(F)(F)F)c2n1 (stereo not drawn) [Example 179, 4-Amino-N-Cyclopropyl-5-Methyl-2-(6-Methyl-1-(3,3,4,4,4-Pentafluorobutyl)-1H-Pyrazolo[3,4-B]Pyridin-3-yl)-6-Oxo-6,7-Dihydro-5H-Pyrrolo[2,3-D]Pyrimidine-5-Carboxamide]
Single oral dose 0.1 mpk P.O.
  Maximum peak decrease of systolic blood pressure (SBP) in SHR, Category: B (Category B=SBP in SHRs 25-40 mmHg)

## CC1(c2cn(CC3CC3)nn2)C(=O)Nc2nc(-c3nn(CCC(F)(F)F)c4ncccc34)nc(N)c21 (stereo not drawn) [Example 180, 4-Amino-5-[1-(Cyclopropylmethyl)-1H-1,2,3-Triazol-4-yl]-5-Methyl-2-[1-(3,3,3-Trifluoropropyl)-1H-Pyrazolo[3,4-B]Pyridin-3-yl]-5,7-Dihydro-6H-Pyrrolo[2,3-D]Pyrimidin-6-One]
Dose 0.3 mpk
  Maximum SBP reduction: 18 ± 5 mmHg
Single oral dose 0.3 mpk P.O.
  Maximum peak decrease of systolic blood pressure (SBP) in SHR, Category: A (Category A=SBP in SHRs<25 mmHg)

## CC1(C(=O)NC2CC2)C(=O)Nc2nc(-c3nn(CCC(F)(F)F)c4ncccc34)nc(N)c21 (stereo not drawn) [Example 181, 4-Amino-N-Cyclopropyl-5-Methyl-6-Oxo-2-[1-(3,3,3-Trifluoropropyl)-1H-Pyrazolo[3,4-B]Pyridin-3-yl]-6,7-Dihydro-5H-Pyrrolo[2,3-D]Pyrimidine-5-Carboxamide]
Dose 0.3 mpk
  Maximum SBP reduction: 49 ± 2 mmHg
Single oral dose 0.3 mpk P.O.
  Maximum peak decrease of systolic blood pressure (SBP) in SHR, Category: B (Category B=SBP in SHRs 25-40 mmHg)

## CC1(C(=O)Nc2cccnc2)C(=O)Nc2nc(-c3nn(CCC(F)(F)F)c4ncccc34)nc(N)c21 (stereo not drawn) [Example 182, 4-Amino-5-Methyl-6-Oxo-N-(Pyridin-3-yl)-2-[1-(3,3,3-Trifluoropropyl)-1H-Pyrazolo[3,4-B]Pyridin-3-yl]-6,7-Dihydro-5H-Pyrrolo[2,3-D]Pyrimidine-5-Carboxamide]
Dose 1.0 mpk
  Maximum SBP reduction: 46 ± 11 mmHg
Single oral dose 1 mpk P.O.
  Maximum peak decrease of systolic blood pressure (SBP) in SHR, Category: B (Category B=SBP in SHRs 25-40 mmHg)

## CC1(C(=O)NC2CC2)C(=O)Nc2nc(-c3nn(CCC(F)(F)F)c4nc(Cl)ccc34)nc(N)c21 (stereo not drawn) [Example 183, 4-Amino-2-[6-Chloro-1-(3,3,3-Trifluoropropyl)-1H-Pyrazolo[3,4-B]Pyridin-3-yl]-N-Cyclopropyl-5-Methyl-6-Oxo-6,7-Dihydro-5H-Pyrrolo[2,3-D]Pyrimidine-5-Carboxamide]
Single oral dose 0.3 mpk P.O.
  Maximum peak decrease of systolic blood pressure (SBP) in SHR, Category: C (Category C=SBP in SHRs>40 mmHg)

## Cc1ccc2c(-c3nc(N)c4c(n3)NC(=O)C4(C)C(=O)NC3CC3)nn(CCC(F)(F)F)c2n1 (stereo not drawn) [Example 184, 4-Amino-N-Cyclopropyll-5-Methyl-2-[6-Methyl-1-(3,3,3-Trifluoropropyl)-1H-Pyrazolo[3,4-B]Pyridin-3-yl]-6-Oxo-6,7-Dihydro-5H-Pyrrolo[2,3-D]Pyrimidine-5-Carboxamide]
Dose 0.3 mpk
  Maximum SBP reduction: 19 ± 5 mmHg
Single oral dose 0.3 mpk P.O.
  Maximum peak decrease of systolic blood pressure (SBP) in SHR, Category: A (Category A=SBP in SHRs<25 mmHg)

## COc1ccc2c(-c3nc(N)c4c(n3)NC(=O)C4(C)C(=O)NC3CC3)nn(CCC(F)(F)F)c2n1 (stereo not drawn) [Example 185, 4-Amino-N-Cyclopropyl-2-[6-Methoxy-1-(3,3,3-Trifluoropropyl)-1H-Pyrazolo[3,4-B]Pyridin-3-yl]-5-Methyl-6-Oxo-6,7-Dihydro-5H-Pyrrolo[2,3-D]Pyrimidine-5-Carboxamide]
Dose 1.0 mpk
  Maximum SBP reduction: 43 ± 7 mmHg
Single oral dose 1 mpk P.O.
  Maximum peak decrease of systolic blood pressure (SBP) in SHR, Category: C (Category C=SBP in SHRs>40 mmHg)
